Reference: patent publication US11911178B2, “System and method to detect and treat arrhythmogenic regions in atrial fibrillation” (Northwestern University, priority 2020, dated 2024)

Test system: atrial fibrillation
Assay: open chest epicardial electrogram mapping of atrial fibrillation in animals at baseline and after ROS scavenger (NAC) administration
Format: in vivo
Description: In an illustrative embodiment, the proposed method and system involve use of an electrogram to monitor a patient's heart characteristics. An electrode recording system can be used to receive and store baseline electrogram signals from the heart of the patient during sinus rhythm. As discussed in more detail below, mapping is performed based on the received electrogram signals to generate high resolution maps in multiple atrial regions of the patient. A reactive oxygen species scavenger (e.g., NAC) is then administered to the patient. The electrogram is used to measure various characteristics of the heart after administration of the ROS scavenger. These characteristics can include dominant frequency (DF), cycle length (CL), organization index (OI), fractionation index (FI), recurrence morphology percentage (Rec %), Shannon's entropy (ShEn), conduction velocity, and voltage. The monitored characteristics can also include the number and stability of rotational, focal, and wavelet activities in different atrial regions of the heart. The various atrial regions of the heart can include posterior left atrium (PLA), left atrial free wall (LAFW), left atrial appendage (LAA), posterior right atrium (PRA), right atrial free wall (RAFW), right atrial appendage (RAA), etc. In alternative embodiments, different heart regions may be used.
In an illustrative embodiment, the proposed system uses a computing system to perform calculation of percentage changes of AF characteristics at each electrogram electrode location at different time intervals subsequent to administration of the ROS scavenger. The percentage changes are based on the baseline readings from the electrogram (i.e., the readings received prior to administration of the ROS scavenger). For example, the calculations of percentage changes can be after 30 minutes, 1 hour, and 2 hours in one embodiment. Alternatively, different or additional times may be used, such as 45 minutes, 1.5 hours, 3 hours, 4 hours, etc. In some implementations, rebolus of the ROS scavenger administration may be performed in between the time periods.
Referring to FIG. 2B, a baseline measurement for each of a plurality of characteristics is obtained using the electrogram system in an operation 230. The baseline measurements are measured prior to administration of the ROS scavenger in an operation 235, and mapping of the various characteristics is performed based on the measured characteristics in an operation 240. Any of the characteristics described herein can be used. The system continues conducting measurements using the electrogram at various periods of time subsequent to administration of the ROS scavenger, such as 30 minutes, 1 hour, 2 hours, etc. The system also calculates the percentage change for each of the measured characteristics at each of the periods of time, as compared to the baseline measurements in an operation 245. Hotspots are identified for each measured characteristic based on the percentage changes in the operation 245. In one embodiment, the determined percentage changes are compared to a percentage change threshold to determine whether a given area is a hotspot. The percentage change threshold can be 5%, 8%, 10%, 20%, etc. depending on the implementation. Alternatively, instead of basing the determination on the percentage change, the determination of whether an area is a hotspot can be based on the amount of absolute change in the measured characteristic, and can vary for each characteristic. Based on the identified hotspots, the system also calculates the percentage of overlap among the various hotspots from each of the characteristics in an operation 250. The system maps the overlapping hotspots (based on the percentage of overlap) so that they can be visualized in an operation 255, and the overlapping hotspots are then targeted for treatment.
Experiments were conducted on animals using the techniques described herein. […]

Compound: CC(=O)N[C@@H](CS)C(=O)O [NAC, N-acetylcysteine]
- mapping field showing hotspot overlap in >50% of the EGM measures (Animal 1, LAFW, 1 hour after administration): 36%
- mapping field showing hotspot overlap in >50% of the EGM measures (Animal 1, LAFW, 2 hours after administration): 13%
- mapping field showing hotspot overlap in >50% of the EGM measures (Animal 8, LAFW, 1 hour after administration): 15%
- mapping field showing hotspot overlap in >50% of the EGM measures (Animal 8, LAFW, (2) hours after administration): 48%
- DF peak (LAFW and PLA, 1 hour after NAC, baseline peak 11.5 Hz, histogram of all 10 hearts): 9 Hz
- DF peak (LAFW and PLA, 2 hours after NAC, baseline peak 11.5 Hz, histogram of all 10 hearts): 7.5 Hz
- stability of observed 360 degree rotations in activation maps (LAFW, after NAC administration): significantly decreased
- DF peak (RAA, after 1 hr NAC, baseline peak 8.5 Hz): 7.5 Hz
- rotational source (after NAC administration): reduced
- mapping field with overlap in more than 50% of the electrogram measurements (percentage change threshold 5%, Animal 1, 1 hour after administration): 19%
- mapping field with overlap in more than 50% of the electrogram measurements (percentage change threshold 5%, Animal 1, 2 hours after administration): 27%
- mapping field with overlap in more than 50% of the electrogram measurements (percentage change threshold 5%, Animal 8, 1 hour after administration): 17%
- mapping field with overlap in more than 50% of the electrogram measurements (percentage change threshold 5%, Animal 8, 2 hours after administration): 47%
- mapping field with overlap in more than 50% of the electrogram measurements (percentage change threshold 20%, Animal 1, after 1 hour): 2%
- mapping field with overlap in more than 50% of the electrogram measurements (percentage change threshold 20%, Animal 1, after 2 hours): 7%
- mapping field with overlap in more than 50% of the electrogram measurements (percentage change threshold 20%, Animal 8, after 1 hour): 6%
- mapping field with overlap in more than 50% of the electrogram measurements (percentage change threshold 20%, Animal 8, after 2 hours): 29%
